The source of these data is patent US20210113493A1, “KETAMINE FOR THE TREATMENT OF M[…] SYMPTOMS” (priority 2016, published 2021).

The test system of data set [1] is subclinical menstrually related symptoms. The note with it: 50 mg lozenges, ½ to 2 once to three times daily.
Data set [2] concerns symptoms of menstrual related pain and emotion. Description: Evaluation of sublingual ketamine lozenges/ODTs in women, Daily Record of Severity of Problems.
The conditions of data set [3]: Aun, Br. J. Anaesthesia 83: 29-41 (1999); cited from earlier work.

For `N[C@@]1(c2ccccc2Cl)CCC[C@@H](O)C1=O`, in data set [1], the mental clarity entry is given as “can experience an increase in mental clarity”.

Take `CNC1(c2ccccc2Cl)CCCCC1=O` (racemic) [ketamine]: the “subjects reporting sufficient improvement with a 25 mg dose” value in data set [2] (25 mg dose, 9 women) was “Three subjects reported sufficient improvement”. For the same molecule, the interference with functionality result in data set [2] (50 mg dose, 9 women) is “One subject reported that a 50 mg dose interfered with their functionality”. Moreover, in data set [2] (100 mg dose, preferred by three subjects), the “relief of PMS symptoms at 100 mg dose” value is reported as “substantial relief of PMS symptoms”. Moreover, the negative after effects entry in data set [2] (9 women) is on record as “no reports of negative after effects”. For the same molecule, the “subjects reporting emotional symptom improvement during the symptomatic days of their cycles” value in data set [2] (9 women, 25-100 mg ketamine racemate sublingual lozenge/ODT) is recorded as 9 subjects. The duration of effect result in data set [2] (all subjects, beyond the time of administration) is given as “lasting for days, or more, beyond the time of ketamine administration”. In data set [2] (physical symptoms, 9 women), the “effect on breast tenderness and cramping” value is reported as “positively affected in three subjects, but not in six others”; the improvement of headaches entry was “Two subjects reported improvement of headaches”. Besides, in data set [2] (sublingual, first hour the intense portion), the “duration of anesthetic effects” value is on record as “up to 2 hours”. The “duration of relief of physical symptoms” value in data set [2] (two subjects, doses of 50 mg and 100 mg, until menses began) was 5 days.

Take `CN[C@]1(c2ccccc2Cl)CCCCC1=O` [S-(+)-ketamine]: in data set [3], the “potency for use in anesthesia relative to R-(−)-ketamine” value was “twice as potent as R-(−)-ketamine”.

For the molecule `NC1(c2ccccc2Cl)CCCCC1=O` (stereo not shown) [norketamine], the “potency for use in anesthesia relative to ketamine” value in data set [3] is “one third the potency of ketamine”.
